The text below walks through data of patent publication US20250051347A1, “BIFUNCTIONAL CHIMERIC HETEROCYCLIC COMPOUND AND USE THEREOF AS ANDROGEN RECEPTOR DEGRADER” (Hinova Pharmaceuticals, Inc., priority 2021, published 2025).

Experiment [1] has as its target T1, androgen receptor (AR) splicing variant AR-v7 (Homo sapiens, UniProt P10275).
T1 construct: The degradation activity of compounds on AR-v7 in 22RV1 cells; host or cells: 22RV1 cells
T1 sequence (P10275 1-644 isoform P10275-3): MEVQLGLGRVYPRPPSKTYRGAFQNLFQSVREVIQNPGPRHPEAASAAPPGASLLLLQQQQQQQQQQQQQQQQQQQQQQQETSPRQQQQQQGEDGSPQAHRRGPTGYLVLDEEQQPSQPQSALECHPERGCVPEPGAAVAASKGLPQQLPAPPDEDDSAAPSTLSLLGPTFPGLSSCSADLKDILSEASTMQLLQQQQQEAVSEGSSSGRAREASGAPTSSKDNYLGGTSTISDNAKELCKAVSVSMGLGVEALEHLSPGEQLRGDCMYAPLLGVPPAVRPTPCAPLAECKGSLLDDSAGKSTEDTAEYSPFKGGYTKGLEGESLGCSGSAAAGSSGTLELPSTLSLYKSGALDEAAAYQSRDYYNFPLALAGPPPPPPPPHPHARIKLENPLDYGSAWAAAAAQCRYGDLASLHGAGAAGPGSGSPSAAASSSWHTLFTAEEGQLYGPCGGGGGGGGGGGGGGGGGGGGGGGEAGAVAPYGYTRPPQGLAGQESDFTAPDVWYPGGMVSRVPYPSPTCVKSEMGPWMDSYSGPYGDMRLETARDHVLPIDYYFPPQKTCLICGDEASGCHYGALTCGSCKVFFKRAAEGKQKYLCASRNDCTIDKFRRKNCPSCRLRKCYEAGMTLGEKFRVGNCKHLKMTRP
As to the kind of experiment: Degradation activity on androgen receptor splicing variant AR-v7 in 22RV1 cells (ELISA). It counts as cell-based. To be noted: AR-v7 degradation in 22RV1 cells, 48 h, class symbols.

The subject of another experiment is 22RV1 cells. To be noted: Homo sapiens, 22Rv1, 144 h.
Where [2] appears, read: read-out: 22RV1 IC50 (nM), 22RV1 cells, 6 days culture, CCK-8, OD 450 nm.

Like-named read-outs stand apart in the source and are kept apart here. Where only a bound is given, the exact number is not on record here.

As a reminder, the DC50 is the concentration giving 50% degradation. A lower DC50 goes with degradation at low concentration. The term IC50 denotes the point on the concentration scale where inhibition reaches its midpoint. As to `CC(=O)c1nccc(COc2ccc(C(C)(C)c3ccc(OCCCNc4ccc5c(c4)C(=O)N(C4CCC(=O)NC4=O)C5=O)cc3)cc2)n1` (stereo not shown) [Example 343, 5-((3-(4-(2-(4-((2-acetylpyrimidin-4-yl)methoxy)phenyl)isopropan-2-yl)phenoxy)propyl)amino)-2-(2,6-dioxopiperidin-3-yl)isoindolin-1,3-dione], the DC50 in experiment [1] fell in the range of 0.011 to 0.1 µM. Besides, the IC50 with 22RV1 cells (setting [2]) came out at 19 nM.
The corresponding values for `CC(O)c1nccc(COc2ccc(C(C)(C)c3ccc(OCCCNc4ccc5c(c4)C(=O)N(C4CCC(=O)NC4=O)C5=O)cc3)cc2)n1` (stereo not shown) [Example 345, 2-(2,6-dioxopiperidin-3-yl)-5-((3-(4-(2-(4-((2-(1-hydroxylethyl)pyrimidin-4-yl)methoxy)phenyl)isopropan-2-yl)phenoxy)propyl)amino)isoindolin-1,3-dione] are 0.011 to 0.1 µM and 10 nM.
Take `CCC(CC)(c1ccc(OCCCNc2ccc3c(c2)C(=O)N(C2CCC(=O)NC2=O)C3=O)cc1)c1ccc(OCc2ccnc(C(C)=O)n2)cc1` (stereo not shown) [Example 350, 5-((3-(4-(3-(4-((2-acetylpyrimidin-4-yl)methoxy)phenyl)pentan-3-yl)phenoxy)propyl)amino)-2-(2,6-dioxopiperidin-3-yl)isoindolin-1,3-dione]: the DC50 in experiment [1] was in the range of 0.011 to 0.1 µM. In addition, the IC50 in the experiment on 22RV1 cells (setting [2]) is 30 nM.
Consider `CC(=O)c1nccc(COc2ccc(C3(c4ccc(OCCCNc5ccc6c(c5)C(=O)N(C5CCC(=O)NC5=O)C6=O)cc4)CCC3)cc2)n1` (stereo not shown) [Example 351, 5-((3-(4-(1-(4-((2-acetylpyrimidin-4-yl)methoxy)phenyl)cyclobutyl)phenoxy)propyl)amino)-2-(2,6-dioxopiperidin-3-yl)isoindolin-1,3-dione], for which, in experiment [1], the DC50 was < 0.01 µM. Also, in the experiment with 22RV1 cells (setting [2]), the IC50 was 7 nM.
In the case of `O=C1CCC(N2C(=O)c3ccc(NC4CC(Oc5ccc(C6(c7ccc(OCc8ccnc(N9CC%10(COC%10)C9)n8)cc7)CCC6)cc5)C4)cc3C2=O)C(=O)N1` (stereo not shown) [Example 356, 5-((3-(4-(1-(4-((2-(2-oxa-6-azaspiro[3.3]heptane-6-yl)pyrimidin-4-yl)methoxy)phenyl)cyclobutyl)phenoxy)cyclobutyl)amino)-2-(2,6-dioxopiperidin-3-yl)isoindolin-1,3-dione], in experiment [1], the DC50 was < 0.01 µM. Besides, the IC50 in the experiment on 22RV1 cells (setting [2]) turned out to be 16 nM.
Take `COc1nccc(COc2ccc(C3(c4ccc(O[C@H]5C[C@H](Nc6ccc7c(c6)C(=O)N(C6CCC(=O)NC6=O)C7=O)C5)cc4)CCC3)cc2)n1` (stereo partly shown) [Example 357, 2-(2,6-dioxopiperidin-3-yl)-5-(((1r,3r)-3-(4-(1-(4-((2-methoxypyrimidin-4-yl)methoxy)phenyl)cyclobutyl)phenoxy)cyclobutyl)amino)isoindolin-1,3-dione]: the DC50 in experiment [1] was < 0.01 µM. In the experiment on 22RV1 cells (setting [2]), the IC50 is 5 nM.
The corresponding values for `O=C1CCC(N2C(=O)c3ccc(N[C@H]4C[C@@H](Oc5ccc(S(=O)(=O)c6ccc(OCc7ccnc(N8CC9(COC9)C8)n7)cc6)cc5)C4)cc3C2=O)C(=O)N1` (stereo partly shown) [Example 363, 5-(((1s,3s)-3-(4-((4-((2-(2-oxa-6-azaspiro[3.3]heptane-6-yl)pyrimidin-4-yl)methoxy)phenyl)sulfonyl)phenoxy)cyclobutyl)amino)-2-(2,6-dioxopiperidin-3-yl)isoindolin-1,3-dione] are < 0.01 µM and 24 nM.
The corresponding values for `CC(C)(c1ccc(OCc2ccnc(N3CC4(COC4)C3)n2)c(F)c1)c1ccc(O[C@H]2C[C@H](Nc3ccc4c(c3)C(=O)N(C3CCC(=O)NC3=O)C4=O)C2)c(F)c1` (stereo partly shown) [Example 365, 5-(((1r,3r)-3-(4-(2-(4-((2-(2-oxa-6-azaspiro[3.3]heptane-6-yl)pyrimidin-4-yl)methoxy)-3-fluorophenyl)isopropan-2-yl)-2-fluorophenoxy)cyclobutyl)amino)-2-(2,6-dioxopiperidin-3-yl)isoindolin-1,3-dione] are < 0.01 µM and 9 nM.
In the case of `CC(C)(c1ccc(OCc2ccnc(N3CC4(COC4)C3)n2)c(F)c1)c1ccc(O[C@H]2C[C@@H](Nc3ccc4c(c3)C(=O)N(C3CCC(=O)NC3=O)C4=O)C2)c(F)c1` (stereo partly shown) [Example 366, 5-(((1s,3s)-3-(4-(2-(4-((2-(2-oxa-6-azaspiro[3.3]heptane-6-yl)pyrimidin-4-yl)methoxy)-3-fluorophenyl)isopropan-2-yl)-2-fluorophenoxy)cyclobutyl)amino)-2-(2,6-dioxopiperidin-3-yl)isoindolin-1,3-dione], the DC50 in experiment [1] was < 0.01 µM. Moreover, in the experiment with 22RV1 cells (setting [2]), the IC50 is 3 nM.
Regarding `CC(C)(c1ccc(OCc2ccnc(OC3COC3)n2)cc1)c1ccc(O[C@H]2C[C@H](Nc3ccc4c(c3)C(=O)N(C3CCC(=O)NC3=O)C4=O)C2)cc1` (stereo partly shown) [Example 369, 2-(2,6-dioxopiperidin-3-yl)-5-(((1r,3r)-3-(4-(2-(4-((2-(oxetane-3-yloxy)pyrimidin-4-yl)methoxy)phenyl)isopropan-2-yl)phenoxy)cyclobutyl)amino) isoindolin-1,3-dione], in experiment [1], the DC50 is < 0.01 µM. Besides, the half-inhibitory concentration (IC50) with 22RV1 cells (setting [2]) was 6 nM.
For the compound `CC(=O)c1ncc(Oc2ccc(C3(c4ccc(O[C@H]5C[C@H](Nc6ccc7c(c6)C(=O)N(C6CCC(=O)NC6=O)C7=O)C5)cc4)CC3)cc2)cn1` (stereo partly shown) [Example 378, 5-(((1r,3r)-3-(4-(1-(4-((2-acetylpyrimidin-5-yl)oxy)phenyl)cyclopropyl)phenoxy)cyclobutyl)amino)-2-(2,6-dioxopiperidin-3-yl)isoindolin-1,3-dione], in experiment [1], the DC50 lay within 0.011 to 0.1 µM. The IC50 with 22RV1 cells (setting [2]) was found to be 7 nM.
The corresponding values for `Cc1nnc(-c2ncc(Oc3ccc(C4(c5ccc(O[C@H]6C[C@H](Nc7ccc8c(c7)C(=O)N(C7CCC(=O)NC7=O)C8=O)C6)cc5)CC4)cc3)cn2)o1` (stereo partly shown) [Example 379, 2-(2,6-dioxopiperidin-3-yl)-5-(((1r,3r)-3-(4-(1-(4-((2-(5-methyl-1,3,4-oxadiazol-2-yl)pyrimidin-5-yl)oxy)phenyl)cyclopropyl)phenoxy)cyclobutyl)amino)isoindolin-1,3-dione] are 0.011 to 0.1 µM and 17 nM.
`CCC(CC)(c1ccc(Oc2cnc(-c3noc(C)n3)nc2)cc1)c1ccc(O[C@H]2C[C@H](Nc3ccc4c(c3)C(=O)N(C3CCC(=O)NC3=O)C4=O)C2)cc1` (stereo partly shown) [Example 380, 2-(2,6-dioxopiperidin-3-yl)-5-(((1r,3r)-3-(4-(3-(4-((2-(5-methyl-1,2,4-oxadiazol-3-yl)pyrimidin-5-yl)oxy)phenyl)pentan-3-yl)phenoxy)cyclobutyl)amino)isoindolin-1,3-dione]: the DC50 in experiment [1] was < 0.01 µM. In addition, the IC50 with 22RV1 cells (setting [2]) stood at 5 nM.
The corresponding values for `Cc1nc(-c2ncc(Oc3ccc(C4(c5ccc(O[C@H]6C[C@H](Nc7ccc8c(c7)C(=O)N(C7CCC(=O)NC7=O)C8=O)C6)cc5)CCOCC4)cc3)cn2)no1` (stereo partly shown) [Example 382, 2-(2,6-dioxopiperidin-3-yl)-5-(((1r,3r)-3-(4-(4-(4-((2-(5-methyl-1,2,4-oxadiazol-3-yl)pyrimidin-5-yl)oxy)phenyl)tetrohydro-2H-pyran-4-yl)phenoxy)cyclobutyl)amino)isoindolin-1,3-dione] are < 0.01 µM and < 1 nM.
`CC(C)(c1ccc(OCCCNc2ccc3c(c2)C(=O)N(C2CCC(=O)NC2=O)C3=O)cc1)c1ccc(OCc2ccnc(N3CCC3)n2)cc1` (stereo not shown) [Example 383] came in with a DC50 in experiment [1] of 0.011 to 0.1 µM. Further, the IC50 in the experiment with 22RV1 cells (read-out: 22RV1 IC50 (nM)) was 34 nM.
In turn, `CC(C)(c1ccc(OCCCNc2ccc3c(c2)C(=O)N(C2CCC(=O)NC2=O)C3=O)cc1)c1ccc(OCc2ccnc(-n3cncn3)n2)cc1` (stereo not shown) [Example 389, 5-((3-(4-(2-(4-((2-(1H-1,2,4-triazol-1-yl)pyrimidin-4-yl)methoxy)phenyl)propan-2-yl)phenoxy)propyl)amino)-2-(2,6-dioxopiperidin-3-yl)isoindol-1,3-dione] yielded a DC50 in experiment [1] of 0.011 to 0.1 µM. In addition, in the experiment on 22RV1 cells (setting [2]), the IC50 came out at 54 nM.
The corresponding values for `CNc1nccc(COc2ccc(C(C)(C)c3ccc(OCCCNc4ccc5c(c4)C(=O)N(C4CCC(=O)NC4=O)C5=O)cc3)cc2)n1` (stereo not shown) [Example 390] are 0.011 to 0.1 µM and 26 nM.
In the same order, the values of `CC(C)(c1ccc(OCCCNc2ccc3c(c2)C(=O)N(C2CCC(=O)NC2=O)C3=O)cc1)c1ccc(OCc2ccnc(-n3ccnc3)n2)cc1` (stereo not shown) [Example 391, 5-((3-(4-(2-(4-((2-(1H-imidazol-1-yl)pyrimidin-4-yl)methoxy)phenyl)propan-2-yl)phenoxy)propyl)amino)-2-(2,6-dioxopiperidin-3-yl)isoindol-1,3-dione] are 0.011 to 0.1 µM and 56 nM.
Consider `CNc1nccc(COc2ccc(C(C)(C)c3ccc(OC4CC(Nc5ccc6c(c5)C(=O)N(C5CCC(=O)NC5=O)C6=O)C4)cc3)cc2)n1` (stereo not shown) [Example 392], for which the DC50 in experiment [1] was 0.011 to 0.1 µM. For the same compound, in the experiment on 22RV1 cells (setting [2]), the IC50 amounted to 21 nM.
Compound `CN1CCN(c2nccc(COc3ccc(C(C)(C)c4ccc(OC5CC(Nc6ccc7c(c6)C(=O)N(C6CCC(=O)NC6=O)C7=O)C5)cc4)cc3)n2)CC1` (stereo not shown) [Example 393] showed a DC50 in experiment [1] of 0.011 to 0.1 µM. Further, the IC50 in the experiment with 22RV1 cells (setting [2]) stood at 10 nM.
